Source: patent publication US20160115540A1, “PRODRUGS AND DRUGS” (Biogen MA Inc., priority 2013, published 2016)
Structures can show the parent of a compound that is named as a salt.

Tested on: blood and tissues
Experiment: Transcriptional profiling, multi-dosing regimen, naïve mice: blood and other tissues
Assay type: in vivo
Description: In vivo, DMF is rapidly metabolized to monomethyl fumarate (MMF). […] Animals were exposed to CO2 and whole blood collected via cardiac puncture. Two 100 μl aliquots of whole blood were collected in 1.5 mL microcentrifuge tubes and snap frozen in liquid nitrogen. Peripheral (liver, spleen, kidney and jejunum) and CNS brain (cerebellum, hippocampus, striatum and cortex) tissues were harvested and snap frozen in liquid nitrogen, with special care taken to collect tissues of similar size and from the same location. All samples were stored at -80° C. until RNA extraction was conducted. For RNA preparation, frozen tissues were placed in 2 mL RNAse-free 96-well blocks with 1.5 mL QIAzol Lysis Reagent (QIAgen) and a 3.2 mm stainless steel bead (BioSpec Products, Bartlesville, Okla.). Tissues were disrupted for four cycles of 45 seconds in a Mini-Beadbeater (Biospec Products). RNA was extracted in chloroform and the aqueous phase was mixed with an equal volume of 70% ethanol. Extracted RNA was applied to RNeasy 96 plates and purified by the spin method according to the manufacturer's protocol (RNeasy 96 Universal Tissue Protocol, QIAgen, Hilden Germany). 50 ul of snap frozen mouse blood was re-suspended in lysis buffer with proteinase K and arrayed into deep-well plates for automated RNA extraction. RNA extractions were completed on […] (Beckman Coulter, Indianapolis, Ind.) using Agencourt RNAdvance Blood kit (Part number A35604) according to the manufacturer's specifications. RNA integrity was assessed using the HT RNA reagent kit (Part number 760410, Caliper Life Sciences, Hopkinton, Mass.) using a LabChip GX (PerkinElmer, Waltham, Mass.). RNA samples with a RQS score of >8.0 were considered high quality for downstream microarray processing. […] Two micrograms of biotin labeled […] probe were hybridized to Affymetrix GeneChip Affymetrix HT_MG-430_PM plate arrays with modified conditions as described in […] et al. Washing and staining of the hybridized arrays were completed as described in the GeneChip Expression analysis technical manual for HT plate arrays using the Genechip® Array Station (Affymetrix, Santa Clara, Calif.) with modifications as described in […] et al. The processed GeneChip® plate arrays were scanned using GeneTitan scanner (Affymetrix, Santa Clara, Calif.). Affymetrix scans were subject to quality control (QC) measures. These tests included a visual inspection of the distribution of raw signal intensities and an assessment of RNA degradation, relative log expression (RLE), and normalized unsealed standard error (NUSE). All sample scans that passed these QC metrics were included in the analysis. All CEL files were subjected to GC-content-based Robust Multi-array Average (GCRMA) normalization (version 2.20.0) (Irizarry R A, et al. Nucleic Acids Res 2003; 31:e15; Li C, et al. Genome Biol 2001; 2:[…]0032). […] Stat Appl Genet Mol Biol 2004; 3:Article3). […] Springer Science+Business Media 2005). Changes in gene expression were studied by applying a linear modeling approach to fit gene expression levels according to the defined groups of samples (e.g. DMF-, MMF-, and Vehicle-treated animals) and Bayesian posterior error analysis as implemented by Smyth (Smyth G K. Stat Appl Genet Mol Biol 2004; 3:Article3). The comparisons considered included: DMF-vs-MMF, DMF-vs-Vehicle, and MMF-vs-Vehicle. […] Very few DEGs are observed in blood and tissues derived from the central nervous system (brain, cerebellum, cortex, striatum, and spinal cord).

[1] = CEREBELLUM, 100MMF-vs-Veh, naïve multidose
[2] = LYMPH NODE, 100MMF-vs-Veh, naïve multidose
[3] = Table 13: Naïve, Single Dose (so in the source), 90 mpk MMF-vs-Vehicle, 12 h after last dosing
[4] = WHOLE BLOOD, 100MMF-vs-Veh, naïve multidose

COC(=O)/C=C/C(=O)O [MMF, monomethyl fumarate]
FC (1447339_PM_at (no gene symbol), WHOLE BLOOD, 100MMF-vs-Veh): 2.49
FC 1110021J02Rik (1419892_PM_at) [1]: 1.56
FC 9430064I24Rik (1442912_PM_at) [1]: 1.86
FC Aox1 (1419435_PM_at) [1]: 1.54
FC Apold1 (1441228_PM_at) [1]: 1.95
FC Cntn2 (1456962_PM_at) [1]: 1.98
FC D130062J21Rik (1446929_PM_at) [1]: 1.66
FC Kat2b (1450821_PM_at) [1]: −1.68
FC Lrrc50 (1421974_PM_at) [1]: 1.61
FC Pcsk1n (1416965_PM_at) [1]: 1.50
FC Prr15 (1452473_PM_at) [1]: 1.53
FC Slc35a5 (1423457_PM_at) [1]: −1.50
FC Sox12 (1439754_PM_at) [1]: 1.67
FC Tm6sf2 (1425079_PM_at) [1]: 1.85
FC probe 1442605_PM_at (no gene symbol) [1]: −1.75
FC probe 1446131_PM_at (no gene symbol) [1]: 1.78
FC (Csf1 1460220_PM_a_at, WHOLE BLOOD, 100MMF-vs-Veh): 1.75
FC (Csrp3 1460318_PM_at, WHOLE BLOOD, 100MMF-vs-Veh): 1.52
FC (Egr3 1436329_PM_at, WHOLE BLOOD, 100MMF-vs-Veh): −1.60
FC (Gstm1 1416416_PM_x_at, WHOLE BLOOD, 100MMF-vs-Veh): 1.59
FC Gtf2ird1 (1460364_PM_at) [2]: 1.56
FC Npas2 (1421037_PM_at) [2]: 1.75
FC Nqo1 (1423627_PM_at) [2]: 1.74
FC (Lpl 1415904_PM_at, WHOLE BLOOD, 100MMF-vs-Veh): 2.65
FC (Pla2g7 1430700_PM_a_at, WHOLE BLOOD, 100MMF-vs-Veh): 1.76
FC (Slc27a2 1416316_PM_at, WHOLE BLOOD, 100MMF-vs-Veh): −1.93
Number of differentially expressed genes identified: Cerebellum [3]: 15
Number of differentially expressed genes identified: Lymph Node [3]: 3
Number of differentially expressed genes identified: Whole blood [3]: 11
FC (Tnfaip2 1416273_PM_at, WHOLE BLOOD, 100MMF-vs-Veh): 1.81
FC (Tnfaip2 1438855_PM_x_at, WHOLE BLOOD, 100MMF-vs-Veh): 1.52
FC (Trf 1425546_PM_a_at, WHOLE BLOOD, 100MMF-vs-Veh): 1.56
FC A230048O21Rik (1458051_PM_at) [4]: 1.53
FC Aco1 (1456728_PM_x_at) [4]: −2.14
FC Adamts20 (1456901_PM_at) [4]: −1.69
FC Adora2a (1460710_PM_at) [4]: 1.66
FC Ankrd33b (1453782_PM_at) [4]: −1.64
FC Anks1b (1460449_PM_at) [4]: −1.56
FC Armcx2 (1456739_PM_x_at) [4]: −1.76
FC Ascc3 (1457069_PM_at) [4]: −1.61
FC B3galnt2 1454842_PM_a_at [4]: −1.86
FC B3galt1 (1455234_PM_at) [4]: −1.50
FC Cno 1459783_PM_s_at [4]: −1.77
FC Commd3 (1454642_PM_a_at) [4]: −1.50
FC Cycs /// Gm10053 1456071_PM_a_at [4]: −1.64
FC D6Wsu116e (1456056_PM_a_at) [4]: −1.74
FC Ddr1 (1456226_PM_x_at) [4]: −1.58
FC Dnaja1 (1459835_PM_s_at) [4]: −1.60
FC Eftud2 (1456107_PM_x_at) [4]: −1.61
FC Eif4g2 (1452758_PM_s_at) [4]: −1.91
FC Epc2 (1455317_PM_at) [4]: −1.56
FC Fgd4 (1455337_PM_at) [4]: −1.52
FC Fgfbp3 (1453006_PM_at) [4]: −1.58
FC Gm8203 /// H2afz (1456032_PM_x_at) [4]: −1.53
FC Gsto1 1456036_PM_x_at [4]: −1.64
FC Gtf3c3 (1454765_PM_at) [4]: −1.82
FC Hecw1 (1456527_PM_at) [4]: −1.55
FC Hspa1b 1452318_PM_a_at [4]: −1.57
FC Itga8 (1454966_PM_at) [4]: −1.51
FC Kbtbd7 (1452700_PM_s_at) [4]: −1.52
FC Kcnt2 (1459971_PM_at) [4]: −1.73
FC Kctd3 1455816_PM_a_at [4]: −1.88
FC Lasp1 (1455470_PM_x_at) [4]: −1.56
FC Lrrtm1 (1455883_PM_a_at) [4]: −1.60
FC Lztr1 (1455928_PM_x_at) [4]: −2.01
FC Matn2 (1455978_PM_a_at) [4]: −2.07
FC Mrps23 (1459806_PM_x_at) [4]: −1.56
FC Nr3c1 (1457635_PM_s_at) [4]: −1.58
FC Odz2 (1457273_PM_at) [4]: −1.53
FC Olfm1 (1455796_PM_x_at) [4]: −1.65
FC Pcdh17 (1453070_PM_at) [4]: −1.53
FC Pik3ca (1453134_PM_at) [4]: −1.62
FC Pitrm1 (1456577_PM_x_at) [4]: −1.68
FC Prcp (1452190_PM_at) [4]: 1.53
FC Ptpn12 (1455105_PM_at) [4]: −1.54
FC Pvrl3 (1457257_PM_x_at) [4]: −2.12
FC Qrsl1 (1456542_PM_s_at) [4]: −1.67
FC Ralgapa2 (1455750_PM_at) [4]: −1.74
FC Ric8 (1455809_PM_x_at) [4]: −1.56
FC Rnf112 (1456108_PM_x_at) [4]: −1.57
FC Rp2h (1454816_PM_at) [4]: −1.51
FC Snx16 (1456041_PM_at) [4]: −1.78
FC Sos2 (1452281_PM_at) [4]: −1.56
FC Surf4 (1455822_PM_x_at) [4]: −1.56
FC Tceb1 1452593_PM_a_at [4]: −1.52
FC Tmed10 (1454688_PM_x_at) [4]: −1.52
FC Tnik (1458403_PM_at) [4]: −1.58
FC Tra2a (1454725_PM_at) [4]: −1.65
FC Trim23 (1456089_PM_at) [4]: −1.71
FC Ubr3 (1460455_PM_at) [4]: −1.63
FC Wdr6 (1455940_PM_x_at) [4]: −1.50
FC Wtap (1454805_PM_at) [4]: −1.57
FC probe 1452426_PM_x_at (no gene symbol) [4]: −1.56
FC probe 1455603_PM_at (no gene symbol) [4]: −1.71
FC probe 1457494_PM_at (no gene symbol) [4]: −1.53
FC probe 1458639_PM_at (no gene symbol) [4]: 1.51
FC probe 1459409_PM_at (no gene symbol) [4]: 1.71
